# Test results from patent publication US20060183773A1, “Uses of methylphenidate derivatives” (priority 2005, published 2006).
# Legend:
# Format in all cases: cell-based, human
# IL-13 = IL-13 release by PBL, ELISA; conditions: Dex 10 μM; for IL-13 release induced by PHA: donor GR467, 2 μg/ml PHA, 96 h, Cpd II 15 μg/ml, MP 15 μg/ml, FIG. 3
# Protocol: (§1) After this incubation, PHA was added to give a final concentration of 2 μg/ml, and the cells were incubated for an additional 96 hours at 37° C., 5% CO2. All cultures were performed in triplicate. Cells were then removed by centrifugation at 1000 rpm for 10 minutes, and the culture medium collected.
# (§2) Release of IL-13 and interferon gamma (IFNγ) into the culture medium was measured by ELISA. To perform the ELISA, matched pairs of antibodies against human IL-13 and IFNγ were purchased from Pierce Biotechnology and Biosource, respectively. ELISA strip well plates were coated with 10 μg/ml of antibody (in phosphate-buffered saline (PBS)) to IL-13 and 4 μg/ml of antibody to IFNγ (in PBS) overnight at room temperature. The plates were then blocked using a 4% BSA solution in PBS for one hour, followed by the addition of 50 μl of experimental culture medium per well in duplicate. The plates were incubated at room temperature for one hour and then washed using 50 mM Tris pH 8.0 with 0.1% Tween 20. Then, solutions of 400 ng/ml biotinylated second antibody to IL-13 and 500 ng/ml biotinylated second antibody to IFNγ were made in blocking buffer, and 100 μl were added per well. The plates were incubated for 1 hour and washed again. A 1:8000 dilution of Strepavidin HRP (Pierce Biotechnology) conjugate was made in blocking buffer, and 100 μl were added to the wells and incubation continued for 30 minutes. A final wash step was performed, after which 100 μl Pierce Biotechnology TMB substrate were added to each well. Color was developed for 30 minutes and stopped by adding 100 μl 0.18 N H2SO4. OD was determined using microplate reader with a 450 nm filter.
# (§3) After this incubation, PHA was added to give a final concentration of 5 μg/ml, and the cells were incubated for an additional 72 hours at 37° C., 5% CO2. All cultures were performed in triplicate. Cells were then removed by centrifugation at 1000 rpm for 10 minutes.
# The supernatants were collected, and the concentrations of IL-13 and tumor necrosis factor alpha (TNFα) in the supernatants were measured by ELISA. […]
# IFNγ = IFNγ release by PBL, ELISA; conditions: donor GR467, Cpd II 15 μg/ml, MP 15 μg/ml, Dex 10 μM, FIG. 4; for IFNγ release, cells stimulated with PHA: 2 μg/ml PHA, 96 h; for IFNγ release, unstimulated cells: no PHA
# Protocol: as §1, §2
# TNFα [1] = test: TNFα release by PBL, ELISA; conditions: donor GR191; 5 μg/ml PHA, 72 h; Cpd II 15 and 50 μg/ml, Dex 10 μM; FIG. 7
# Protocol: as §3
# The TNFα ELISA was performed as described in Example 2 using matched pair antibodies from Pierce Endogen (2 μg/ml for the coating antibody and 250 ng/ml for the second antibody).
# TNFα [2] = test: TNFα release from LPS-stimulated THP-1 monocytes, ELISA; conditions: THP-1, LPS 200 ng/ml, Cpd II 15 μg/ml, Dex 10 μM
# Protocol: THP-1 is a monocyte cell line obtained from American Type Culture Collection (ATCC) (catalog no. TIB-202). […] After 1 hour, lipopolysaccharide (LPS) (obtained from Sigma) was added to the cultures to give a final concentration of 200 ng/ml, and the cells were then incubated for an additional 4 hours or for an additional 24 hours. After the incubation, the cells were centrifuged, and the supernatants were collected. The concentrations of IL-8 and TNFα in the supernatants were determined by ELISA.
# The TNFα ELISA was performed as described in Example 2.
# IL-8 = IL-8 release by LPS-stimulated HUVECs, ELISA; conditions: for IL-8: LPS 200 ng/ml overnight + 15 μg/ml
# Protocol: Passage 4 (i.e., four cell population doublings) human umbilical vein endothelial cells (HUVECs), human source lot number 9713 (obtained from ATCC), were put into the wells of a 48-well tissue culture plate at 20,000 cells/well in 500 μl of endothelial growth medium-2 (EGM-2) complete medium (but without serum or ascorbate) (obtained from Cambrex) supplemented with ITSS (insulin, transferrin and sodium selenite) (obtained from Sigma). Also, passage 4 HUVECs, human source lot number 7016 (obtained from ATCC), were put into the wells of a 48-well tissue culture plate at 20,000 cells/well in 500 μl of EGM-2 complete medium (but without serum or ascorbate) supplemented with ITSS. The following additives were added to the cells: water (vehicle control) and 15 μg/ml of the compound of formula II (Cpd II). After incubation for 1 hour at 37 ° C. and 5% CO2, lipopolysaccharide (LPS) (obtained from Sigma) was added to give a final concentration of 200 ng/ml, and the cells were incubated overnight at 37° C. and 5% CO2. After this incubation, the supernatants were collected, and the amount of IL-8 in the supernatants determined by ELISA as described in Example 4.
# IL-7y = test: Custom AntibodyArray, TRiPS cells: IL-7y; conditions: 15 μg/ml, 30 minutes
# Protocol: (§4) Day 18 TRiPS cells, 1×10^6, were incubated for 30 minutes at 37° C., either with nothing added (“Nil”), with 1 μl CD3/CD28 Dynabeads (Dynal, Oslo, Norway) (“CD3/CD28 beads”) per 100,000 cells, or with CD3/CD28 beads and 15 μg/ml of the compound of formula II (Cpd II). After the incubation, the cells were lysed in Cell-Lytic Mammalian Cell Extraction Reagent (Sigma). After centrifugation to pellet cellular debris, the supernatants (cell extracts) were obtained.
# (§5) The cell extracts (supernatants) were then analyzed using a Custom AntibodyArray™ manufactured by Hypromatrix Inc., Worcester, Mass., following the manufacturer's instructions. The Custom AntibodyArray™ is a nylon membrane blotted with antibodies to the proteins listed below. Briefly, the cell extracts were incubated with duplicate Custom AntibodyArray™'s for 2 hours at room temperature with slow shaking, followed by three washes with Tris buffer (150 mM NaCl, 25 mM Tris, 0.05% Tween-20, pH 7.5). HRP-labeled antibodies specific for phosphorylated-tyrosine, phosphorylated-serine and phosphorylated-threonine in Tris buffer were added, and the arrays incubated for 2 hours. After three more washes with Tris buffer, a peroxidase-reactive luminescent substrate was added. The arrays were visualized by exposure to X-ray film. Densitometry of the X-ray films was measured by scanning and computer analysis.
# IkB-ε = test: Custom AntibodyArray, TRiPS cells: IkB-ε; conditions: 15 μg/ml, 30 minutes
# Protocol: as §4, §5
SMILES,"release of IL-13 from PHA-stimulated PBL (IL-13; donor GR191, 5 μg/ml PHA, 72 h, Cpd II 15 and 50 μg/ml, FIG. 6)",IL-13 release induced by PHA (IL-13),"IFNγ release, cells stimulated with PHA (IFNγ)","IFNγ release, unstimulated cells (IFNγ)",release of TNFα from PHA-stimulated PBL (TNFα [1]),"inhibition at 15 µg/mL (TNFα [2]; Homo sapiens, 24 hours) [%]","Mean TNFα Concentration (TNFα [2]; 24 hours, LPS alone 138.655) [pg/mL]",release of TNFα from LPS-stimulated monocytes (in words) (TNFα [2]),"IL-8 (IL-8; 7016 HUVECs, LPS only 53.3)","IL-8 (IL-8; 9713 HUVECs, LPS only 485.0) [pg/mL]",IL-8 release by the 7016 HUVECs (in words) (IL-8; LPS 200 ng/ml + 15 μg/ml),decrease of IL-8 release in the 9713 HUVECs (IL-8; LPS 200 ng/ml + 15 μg/ml) [%],Effect of Cpd II on the protein in CD3/CD28 stimulated TRiPS cells (IL-7y),Effect of Cpd II on the protein in CD3/CD28 stimulated TRiPS cells (IkB-ε)
COC(=O)C(c1ccc(-c2ccccc2)cc1)C1CCCCN1 (centres unmarked) [Cpd II],significantly inhibited the release of IL-13,significantly inhibited IL-13 release induced by PHA,significantly inhibited IFNγ release,significantly inhibited IFNγ release,significantly inhibited the release of TNFα,53,65.370 ± 0.891,significantly inhibited the release of TNFα,Below detection,49.8,complete eliminated IL-8 release,90,Decreased level back to basal levels (Nil control),Slightly decreased the level
COC(=O)C(c1ccccc1)C1CCCCN1 (centres unmarked) [methylphenidate],,increased the release of IL-13 by the PHA-stimulated cells,increased the release of IFNγ by the PHA-stimulated cells,had some effect on the release of IFNγ by unstimulated cells,,,,,,,,,,
